Measurements from patent US11000033B2, “Ketone or oxime compound, and herbicide” (NISSAN CHEMICAL CORPORATION, priority 2014, dated 2021).

How the values were obtained:
Type in all cases: in vivo
[1] = tested on: Echinochloa oryzacola Vasing.; test: Test Example 1: herbicidal activity, application before weed generation in submerged conditions (symbol A); conditions: application herbicide amount 320 g/ha
Procedure, shortened: (§1)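 Ratings (5: ≥90%, near complete withering; 4: 70–<90%; 3: 40–<70%; 2: 20–<40%; 1: 5–<20%; 0: ≤5%) were assigned 3 weeks after the diluted emulsion was applied to the water surface of freshly sown, submerged pots.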

Monochoria vaginalis = test: Test Example 1: herbicidal activity, application before weed generation in submerged conditions (symbol C); conditions: application herbicide amount 320 g/ha
Procedure, shortened: as §1

Leptochloa chinensis = test: Test Example 3: herbicidal effect by foliage application, Wagner pot (symbol D); conditions: application herbicide amount 320 g/ha
Procedure, shortened: (§2)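 Seeds sown in alluvial soil kept under 0.1–0.5 cm water, greenhouse 25–30 °C; 14 d growth. Leaves treated by small sprayer with water-diluted emulsion at a predetermined rate. Effect graded by set scale, 3 weeks.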

Cyperus difformis = test: Test Example 3: herbicidal effect by foliage application, Wagner pot (symbol E); conditions: application herbicide amount 320 g/ha
Procedure, shortened: as §2

Lolium multiflorum Lam. = test: Test Example 4: herbicidal effect by soil treatment (symbol K); conditions: 320 g/ha
Procedure, shortened: (§3)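 Seeds were sown in sterilized diluvial soil, covered with about 1.5 cm of soil, and the soil surface was sprayed with a water-diluted emulsion of the compound at a predetermined rate. Plants grew in a greenhouse at 25° C. to 30° C.; effects were scored visually 3 weeks after application.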

Amaranthus retroflexus = test: Test Example 4: herbicidal effect by soil treatment (symbol N); conditions: 320 g/ha
Procedure, shortened: as §3

Chenopodium album [2] = test: Test Example 4: herbicidal effect by soil treatment (symbol O); conditions: 320 g/ha
Procedure, shortened: as §3

Galium spurium = test: Test Example 4: herbicidal effect by soil treatment (symbol Q); conditions: 320 g/ha
Procedure, shortened: as §3

rice = test: Test Example 4: effect on crop by soil treatment (symbol b); conditions: 320 g/ha
Procedure, shortened: (§4)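 Crop seeds, among them rice, wheat, beet and rapeseed, were sown in sterilized diluvial soil and covered with about 1.5 cm of soil. Boxes were kept in a greenhouse at 25° C. to 30° C. for plant growth.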

wheat [3] = test: Test Example 4: effect on crop by soil treatment (symbol e); conditions: 320 g/ha
Procedure, shortened: as §4

beet = test: Test Example 4: effect on crop by soil treatment (symbol f); conditions: 320 g/ha
Procedure, shortened: as §4

rapeseed = test: Test Example 4: effect on crop by soil treatment (symbol g); conditions: 320 g/ha
Procedure, shortened: as §4

Avena fatua = test: Test Example 5: herbicidal effect by foliage application, plastic box (symbol I); conditions: 320 g/ha, 3 weeks after application
Procedure, shortened: (§5)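 Seeds were sown in sterilized diluvial soil, covered with about 1.5 cm of soil and grown 14 days in a greenhouse at 25° C. to 30° C. An emulsifiable formulation diluted in water to a set rate was sprayed over foliage, and injury was scored 3 weeks later.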

Apera spica-venti = test: Test Example 5: herbicidal effect by foliage application, plastic box (symbol L); conditions: 320 g/ha, 3 weeks after application
Procedure, shortened: as §5

Abutilon theophrasti = test: Test Example 5: herbicidal effect by foliage application, plastic box (symbol M); conditions: 320 g/ha, 3 weeks after application
Procedure, shortened: as §5

Chenopodium album [4] = test: Test Example 5: herbicidal effect by foliage application, plastic box (symbol O); conditions: 320 g/ha, 3 weeks after application
Procedure, shortened: as §5

Stellaria media = test: Test Example 5: herbicidal effect by foliage application, plastic box (symbol P); conditions: 320 g/ha, 3 weeks after application
Procedure, shortened: as §5

rice plant = test: Test Example 5: effect on crop by foliage application, plastic box (symbol b); conditions: 320 g/ha, 3 weeks after application
Procedure, shortened: (§6)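 A greenhouse held between 25° C. and 30° C. was used to grow plants sown spot-wise, beneath ~1.5 cm of soil, in boxes of sterilized diluvial soil.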

wheat [5] = test: Test Example 5: effect on crop by foliage application, plastic box (symbol e); conditions: 320 g/ha, 3 weeks after application
Procedure, shortened: as §6

CC(CC1CC(O)=C(c2c(C)cc(C)cc2C)C1=O)=NOCC1CC1(F)F (centres unmarked) [1-109]
Herbicidal effect grade, A: Echinochloa oryzacola Vasing. [1]: 5 (Herbicidal ratio of 90% or more (almost completely withered)) | Herbicidal effect grade, C: Monochoria vaginalis (Monochoria vaginalis): 3 (Herbicidal ratio of 40% or higher and lower than 70%) | herbicidal effect on D (Leptochloa chinensis), grade 0-5 (Leptochloa chinensis): 5 (Herbicidal ratio of 90% or more (almost completely withered)) | herbicidal effect on E, grade 0-5 (Cyperus difformis): 5 (Herbicidal ratio of 90% or more (almost completely withered)) | K: Lolium multiflorum Lam., herbicidal effect grade (Lolium multiflorum Lam.): 5 (Herbicidal ratio of 90% or more (almost completely withered)) | N: Amaranthus retroflexus, herbicidal effect grade (Amaranthus retroflexus): 3 (Herbicidal ratio of 40% or higher and lower than 70%) | O: Chenopodium album, herbicidal effect grade (Chenopodium album [2]): 0 (Herbicidal ratio of 5% or lower (almost no effect)) | Q: Galium spurium, herbicidal effect grade (Galium spurium): 0 (Herbicidal ratio of 5% or lower (almost no effect)) | b: directly sowed rice plant, effect grade on crop (rice): 5 (Herbicidal ratio of 90% or more (almost completely withered)) | e: wheat, effect grade on crop (wheat [3]): 2 (Herbicidal ratio of 20% or higher and lower than 40%) | f: beet, effect grade on crop (beet): 0 (Herbicidal ratio of 5% or lower (almost no effect)) | g: rapeseed, effect grade on crop (rapeseed): 4 (Herbicidal ratio of 70% or higher and lower than 90%) | I: Avena fatua, herbicidal effect (criteria 0-5) (Avena fatua): 5 (Herbicidal ratio of 90% or more (almost completely withered)) | L: Apera spica-venti, herbicidal effect (criteria 0-5) (Apera spica-venti): 5 (Herbicidal ratio of 90% or more (almost completely withered)) | M: Abutilon theophrasti, herbicidal effect (criteria 0-5) (Abutilon theophrasti): 3 (Herbicidal ratio of 40% or higher and lower than 70%) | O: Chenopodium album, herbicidal effect (criteria 0-5) (Chenopodium album [4]): 3 (Herbicidal ratio of 40% or higher and lower than 70%) | P: Stellaria media, herbicidal effect (criteria 0-5) (Stellaria media): 3 (Herbicidal ratio of 40% or higher and lower than 70%) | b: directly sowed rice plant, effect on crop (criteria 0-5) (rice plant): 5 (Herbicidal ratio of 90% or more (almost completely withered)) | e: wheat, effect on crop (criteria 0-5) (wheat [5]): 5 (Herbicidal ratio of 90% or more (almost completely withered))

CC(CC1CC(O)=C(c2c(C)cc(C)cc2C)C1=O)=NOCC(C)Cl (centres unmarked) [1-121]
Herbicidal effect grade, A: Echinochloa oryzacola Vasing. [1]: 5 (Herbicidal ratio of 90% or more (almost completely withered)) | Herbicidal effect grade, C: Monochoria vaginalis (Monochoria vaginalis): 3 (Herbicidal ratio of 40% or higher and lower than 70%) | herbicidal effect on D (Leptochloa chinensis), grade 0-5 (Leptochloa chinensis): 5 (Herbicidal ratio of 90% or more (almost completely withered)) | herbicidal effect on E, grade 0-5 (Cyperus difformis): 4 (Herbicidal ratio of 70% or higher and lower than 90%) | K: Lolium multiflorum Lam., herbicidal effect grade (Lolium multiflorum Lam.): 5 (Herbicidal ratio of 90% or more (almost completely withered)) | N: Amaranthus retroflexus, herbicidal effect grade (Amaranthus retroflexus): 0 (Herbicidal ratio of 5% or lower (almost no effect)) | O: Chenopodium album, herbicidal effect grade (Chenopodium album [2]): 0 (Herbicidal ratio of 5% or lower (almost no effect)) | Q: Galium spurium, herbicidal effect grade (Galium spurium): 0 (Herbicidal ratio of 5% or lower (almost no effect)) | b: directly sowed rice plant, effect grade on crop (rice): 5 (Herbicidal ratio of 90% or more (almost completely withered)) | e: wheat, effect grade on crop (wheat [3]): 0 (Herbicidal ratio of 5% or lower (almost no effect)) | f: beet, effect grade on crop (beet): 0 (Herbicidal ratio of 5% or lower (almost no effect)) | g: rapeseed, effect grade on crop (rapeseed): 3 (Herbicidal ratio of 40% or higher and lower than 70%) | I: Avena fatua, herbicidal effect (criteria 0-5) (Avena fatua): 5 (Herbicidal ratio of 90% or more (almost completely withered)) | L: Apera spica-venti, herbicidal effect (criteria 0-5) (Apera spica-venti): 5 (Herbicidal ratio of 90% or more (almost completely withered)) | M: Abutilon theophrasti, herbicidal effect (criteria 0-5) (Abutilon theophrasti): 3 (Herbicidal ratio of 40% or higher and lower than 70%) | O: Chenopodium album, herbicidal effect (criteria 0-5) (Chenopodium album [4]): 3 (Herbicidal ratio of 40% or higher and lower than 70%) | P: Stellaria media, herbicidal effect (criteria 0-5) (Stellaria media): 2 (Herbicidal ratio of 20% or higher and lower than 40%) | b: directly sowed rice plant, effect on crop (criteria 0-5) (rice plant): 5 (Herbicidal ratio of 90% or more (almost completely withered)) | e: wheat, effect on crop (criteria 0-5) (wheat [5]): 3 (Herbicidal ratio of 40% or higher and lower than 70%)
